For 121 compounds, melting point results are on record in a melting point compilation (Tetko et al.).

`COc1ccc(C)cc1Nc1nnc(S)s1`: the melting point was 210 to 212 °C. As for `CCOc1ccc(-c2cc(C(=O)O)c3c(C)noc3n2)cc1`, the melting point was 222 to 224 °C. The result for `CCOc1cc(C(N)=NO)cc(Br)c1O` reads 157 to 159 °C. Consider `O=[N+]([O-])c1cc(S(=O)(=O)NCCN2CCOCC2)ccc1Cl`, for which the melting point lay in the range of 119 to 121 °C.

Regarding `CN(CC(=O)O)C(=O)c1ccsc1`, the melting point lay in the range of 56 to 57 °C. The figure for `O=C(O)CNC(=O)C1CCOCC1` is 166 to 168 °C. In turn, `Cn1c(S)nc2ccsc2c1=O` returned a melting point of 313 to 315 °C. `Cc1cc(Br)cc2cc(C(=O)O)oc12` showed a melting point of 222 to 224 °C. Compound `Cc1cc(OC(C)C(=O)O)ccc1C(C)C` (stereo unspecified) gave a melting point of 92 to 94 °C. The result for `Nc1ccc(Cl)cc1-c1nc2ccccc2[nH]1` reads 236 to 238 °C. The figure for `COC(=O)c1ccsc1N1CCC(N)C1=O` (stereo unspecified) is 88 to 90 °C; for `Cc1cc(C(=O)O)c2c(C3CC3)noc2n1` it is 201 to 203 °C; for `CC(C)c1nnc(S)n1C` it is 139 to 141 °C. On to `COC(=O)c1ccc(C(F)(F)F)cc1SC`, for which the melting point was in the range of 49 to 51 °C. Regarding `CCN(CC)S(=O)(=O)c1cc(C(=O)O)n(C)c1`, the melting point was 174 to 176 °C. The figure for `N#Cc1c(SCC(=O)O)nc2c(c1-c1ccco1)CCCC2` is 209 to 211 °C; for `O=C(O)CSCc1ccc(Cl)c(Cl)c1` it is 67 to 69 °C. The figure for `O=C(O)CCNC(=O)c1cnccn1` is 55 to 57 °C; for `NC(=O)Nc1ccccc1[N+](=O)[O-]` it is 186 to 188 °C. The result for `CC(=O)OCC(=O)[C@@]1(O)CC[C@H]2[C@@H]3CCC4=CC(=O)CC[C@]4(C)[C@H]3[C@@H](O)C[C@@]21C` reads 219 to 221 °C.

In turn, `O=C(O)c1cccnc1SC(F)(F)F` came in with a melting point of 162 to 164 °C. The result for `Cc1ccc2[nH]c(-c3ccc(Br)cc3)c(CCC(=O)O)c2c1` reads 101 to 103 °C. The figure for `CCOC(=O)COc1ccc(O)cc1` is 121 to 123 °C; for `CSc1ccc2c(c1)CCCC2=O` it is 74 to 76 °C; for `COc1cc(C(C)=O)ccc1SCC(=O)O` it is 134 to 136 °C. The figure for `Nc1cc(-c2cccc(Cl)c2Cl)[nH]n1` is 110 to 112 °C. Consider `O=C(O)C=Cc1cn(-c2ccccc2)nc1-c1cccs1`, for which the melting point was in the range of 224 to 226 °C. The figure for `Brc1ccc(Cc2nnn[nH]2)cc1` is 172 to 174 °C; for `CCC1(C)CCNC(=O)CC1` (stereo unspecified) it is 76 to 78 °C; for `Clc1ncnc2c1CCCC2` it is 79 to 81 °C.

For the compound `O=C(O)C=Cc1cn(-c2ccccc2)nc1-c1cccc([N+](=O)[O-])c1`, the melting point is 248 to 250 °C. Take `O=C1CC(C(=O)O)c2ccccc2N1` (stereo unspecified): the melting point was 211 to 213 °C.

In the case of `COc1ccc2c(c1)c(C(=O)O)c(C)n2C1CC1`, the melting point was in the range of 199 to 201 °C. The result for `Nc1ccnc2ccncc12` reads 254 to 256 °C; that for `CCOc1ccc(-c2nc(N)sc2C)cc1`, 98 to 100 °C; that for `NC1CCN(c2ccccc2Cl)C1=O` (stereo unspecified), 70 to 72 °C. `Cn1c(=O)c2cc(N)cnc2n(C)c1=O` gave a melting point of 219 to 221 °C. The result for `CCCCS(=O)(=O)NCC(=O)O` reads 65 to 67 °C.

Consider `CCCc1[nH]ncc1C(=O)O`, for which the melting point was in the range of 207 to 209 °C. The result for `COc1ccc(S(=O)(=O)NCC(=O)O)cc1OC` reads 173 to 175 °C; that for `NNC(=O)c1cccc(S(=O)(=O)N2CCCC2)c1`, 153 to 155 °C.

`COC(=O)c1ccc(S(N)(=O)=O)s1` came in with a melting point of 150 to 152 °C. `O=C1CCc2cc(C(=O)O)ccc2N1`: the melting point was 261 to 263 °C. The result for `CC(Sc1ccc([N+](=O)[O-])cc1)C(=O)O` (stereo unspecified) reads 114 to 116 °C. The result for `CC(C)(C)c1ccc(N2CCC(=O)CC2)cc1` reads 69 to 71 °C; that for `O=C(O)c1cccn2ccnc12`, 266 to 268 °C; that for `O=C(O)C1CC12CCOc1ccccc12` (stereo unspecified), 159 to 161 °C. `ClCc1nnc(-c2ccccc2)o1` had a melting point of 90 to 100 °C. `O=C(CCl)NC1CCCCNC1=O` (stereo unspecified) returned a melting point of 196 to 198 °C. The figure for `Nc1ccccc1-c1[nH]nc2c1CCC2` is 128 to 130 °C; for `CCCc1nnn[nH]1` it is 63 to 65 °C. Take `N#Cc1ccc(Cl)cc1NCc1ccccn1`: the melting point fell in the range of 100 to 102 °C.

The compound `Fc1ccc(-c2nnc(Cl)c3ccccc23)cc1F` yielded a melting point of 164 to 166 °C. The figure for `C=CCc1ccc(OCC(=O)O)c(OC)c1` is 169 to 172 °C. The result for `Cc1ccc(/C=C/C(=O)O)c(C)c1` reads 182 to 184 °C; that for `CC(=O)N1CCN(c2ccc(CO)cc2)CC1`, 146 to 148 °C.

`O=C(CCl)Nc1cccc(S(=O)(=O)N2CCOCC2)c1`: the melting point is 157 to 159 °C. The result for `O=C(O)C1COc2ccc(Br)cc21` (stereo unspecified) reads 114 to 116 °C; that for `O=C(CCl)c1ccc(NC(=O)c2ccccc2)cc1`, 140 to 142 °C. In turn, `Cc1ccc(S(=O)(=O)N(C)C)cc1NC(=S)NN` came in with a melting point of 191 to 193 °C.

Take `Cn1nc(C(=O)O)c(=O)c2ccccc21`: the melting point lay in the range of 244 to 246 °C. Compound `CC(=O)c1cccc(OCCCC(=O)O)c1` displayed a melting point of 90 to 92 °C.

Take `Cc1ccc(-c2nn(Cc3ccccc3)cc2C=O)cc1C`: the melting point lay in the range of 79 to 81 °C. The figure for `COc1ccc(C#N)cc1C` is 49 to 51 °C; for `ClCc1csc(-c2ccccn2)n1` it is 85 to 87 °C. For `O=C(O)c1cccn1CCc1ccccc1`, the melting point lay in the range of 119 to 121 °C. Consider `N#Cc1ccccc1S(=O)(=O)N1CCN(C(=O)CCl)CC1`, for which the melting point fell in the range of 206 to 208 °C. The result for `O=C(CO)N1CCCC1` reads 37 to 39 °C.

Turning to `O=C(O)CC1C(=O)Nc2ccccc21` (stereo unspecified), the melting point lay in the range of 214 to 216 °C. `Cc1c(NC(C)C(C)C)cccc1C(=O)O` (stereo unspecified) registered a melting point of 90 to 92 °C.

In turn, `O=c1cc(CCl)c2ccc(O)cc2o1` displayed a melting point of 135 to 137 °C. With `O=C1CNC(=O)c2sccc2N1`, the melting point was 239 to 241 °C. For the compound `Cn1c(Cl)c(C=O)c2ccccc21`, the melting point was 92 to 94 °C. The figure for `CC(=O)c1sc2nc(C)cc(C)c2c1N` is 174 to 176 °C. Compound `COc1ccc(NS(=O)(=O)c2cc(N)ccc2N2CCOCC2)cc1` had a melting point of 232 to 234 °C. The compound `O=C(c1ccccc1)c1ccc(OC(F)F)cc1` came in with a melting point of 156 to 158 °C. The figure for `CC(NC(=O)c1ccccc1NC(=O)CCl)c1ccccc1` (stereo unspecified) is 118 to 120 °C; for `NC(=S)NCc1ccc(F)cc1` it is 119 to 121 °C; for `Nc1cccc(C(=O)NCc2ccccn2)c1` it is 119 to 121 °C.

`Nc1onc(C2CCCC2)c1-c1ccc2c(c1)OCO2` gave a melting point of 122 to 124 °C.

In turn, `ClCc1nn(-c2ccccc2)c2c1CCC2` had a melting point of 83 to 85 °C.

In turn, `N#Cc1ccc(C=C2CCn3c2nc2cc(C(=O)O)ccc2c3=O)cc1` yielded a melting point of 300 to 302 °C. For `Cc1nn(-c2ccccc2)c(N2CCCCC2)c1C=O`, the melting point was in the range of 75 to 77 °C.

In turn, `COc1ccc(Cl)cc1CC#N` displayed a melting point of 51 to 55 °C.

Turning to `ClCc1nc(Cl)c2c3c(sc2n1)CCCC3`, the melting point was 89 to 91 °C. The figure for `CC1CCCC(=O)N1` (stereo unspecified) is 87 to 89 °C.

`Cc1ccc(C)n1-c1ccsc1C(=O)O`: the melting point was 185 to 187 °C. The result for `NC(CC(=O)NC1CCCCC1)=NO` reads 167 to 169 °C; that for `CC(C)(C)OC(=O)N1CCc2[nH]c(=O)c(S(C)(=O)=O)cc2C1`, 229 to 231 °C; that for `Cc1nnc(Br)s1`, 106 to 108 °C. `c1ccc2cc(C3CO3)ccc2c1` (stereo unspecified) showed a melting point of 57 to 59 °C. `Nc1c(I)cccc1C(=O)O` came in with a melting point of 172 to 174 °C. The result for `N#Cc1ccc(Oc2cccc([N+](=O)[O-])c2)cc1` reads 124 to 126 °C; that for `N#Cc1ccc(Cl)cc1NC1CCCCC1`, 74 to 76 °C. Turning to `CC(C)(C)c1cnnc(N)n1`, the melting point was in the range of 187 to 189 °C.

For `S=C(Nc1ccccc1)N1CCCCC1`, the melting point lay in the range of 99 to 101 °C. The figure for `Cc1cc(S(=O)(=O)Cl)c(Cl)cc1F` is 44 to 46 °C; for `O=C(O)CSCc1ccc(Cl)cc1` it is 57 to 59 °C.

Take `COC(=O)c1ccc(-n2cc(C)cn2)c(N)c1`: the melting point lay in the range of 136 to 138 °C.

`Cc1c[nH]c(=O)n1-c1cccc(C(=O)O)c1`: the melting point was 289 to 291 °C. The compound `CCN(c1ccccc1)c1ccc(C(=O)O)cc1` came in with a melting point of 178 to 180 °C. The result for `N#CCC(=O)NC1CC1` reads 87 to 90 °C; that for `Cc1nc(Cl)c2c(n1)CCCC2`, 30 to 32 °C; that for `Cc1ccc(Sc2nc(=N)s[nH]2)cc1`, 181 to 183 °C.

The compound `Nc1nonc1-c1ccc(Br)cc1` displayed a melting point of 141 to 143 °C. `O=C(c1cccnc1)c1c(F)cc(F)cc1F` came in with a melting point of 38 to 40 °C. `COc1ccc(-c2nc(CN)cs2)cc1`: the melting point lay within 67 to 69 °C. As to `Nc1[nH]ncc1[N+](=O)[O-]`, the melting point was 237 to 239 °C. The result for `CCN1C(=O)C(=O)c2cc(C)ccc21` reads 104 to 106 °C; that for `COc1cc(NS(=O)(=O)c2ccc(N)cc2OC)cc(OC)c1`, 177 to 179 °C; that for `COC(=O)c1ccc(Cl)nc1C`, 30 to 32 °C. On to `O=C(NCC1CCCCN1)c1ccccc1` (stereo unspecified), for which the melting point lay within 109 to 111 °C. With `O=C(O)c1nn(-c2ccc(F)cc2)ccc1=O`, the melting point lay within 240 to 242 °C. The compound `CC(C)(C)Sc1ccc(C#N)cn1` displayed a melting point of 69 to 71 °C.

As to `Cc1cc(Br)cc(Cl)c1OCC(=O)O`, the melting point is 197 to 199 °C. The result for `Nc1ccc(F)c(N2CCCC2=O)c1` reads 122 to 124 °C; that for `Cc1nc(CC(N)=NO)cs1`, 139 to 141 °C; that for `O=C1CN(c2ccccc2)CCCN1`, 191 to 193 °C. The result for `O=Cc1cccc(OCC(=O)O)c1` reads 111 to 113 °C; that for `N#Cc1cc(CO)ccn1`, 109 to 111 °C. `Cc1nc(C(=O)O)nn1-c1nnc[nH]1`: the melting point lay in the range of 225 to 227 °C.

As usually defined, the melting point is the temperature of the solid-liquid transition.
